Test results as given in publication PMC10901353, “Identification of a potent and selective LAPTc inhibitor by RapidFire-Mass Spectrometry, with antichagasic activity” (PLOS Neglected Tropical Diseases, 2024).
Several values for one entry are separate records, joined by “and”; a condition that tells them apart may be missing. Equal entries are not always repeated. Where two headings read alike, the source gives them in different places.

Tests used:
[1] = tested on: intracellular T. cruzi amastigotes; assay: T. cruzi intracellular assay (high-content imaging, infected Vero cells); type: cell-based, Trypanosoma cruzi; parameters: Max Effect (T. cruzi): unit not given here; conditions: for EC50 / Emax: Trypanosoma cruzi, Vero; for Emax: read-out: Max Effect (T. cruzi)
Protocol: T. cruzi parasite, TcI strain Silvio X10/7 subclone A1 [34] was maintained in culture as previously described. Parasites were maintained as amastigotes by passaging on a weekly basis in Vero cells. Culture maintenance infections were carried out at an MOI (multiplicity of infection) of 1.5.
(§1) This assay was performed as described with the only modification that treatment was 96 h instead of 72 h. Briefly, Vero cells were infected overnight with tissue culture derived T. cruzi trypomastigotes in T225 tissue culture flasks (MOI 5). Any remaining free trypomastigotes were washed away with serum free MEM and the infected Vero cells were harvested by trypsinisation. Compounds (250 nL in DMSO) were dispensed using LabCyte ECHO (Beckman Coulter Life Sciences, USA) into each well of Corning black flat bottomed 384-well plates (Corning, USA). […] The infected Vero cells were then plated into the plates containing the compounds, at 4,000 cells per well in MEM media with 1% FCS. After 96 h incubation at 37°C in presence of 5% CO2, the plates were fixed with 4% formaldehyde for 20 min at room temperature and stained with 5 μg/mL Hoechst 33342. The plates were imaged on a Perkin Elmer Operetta high-content imaging system using a 20× objective. Images were analyzed using the Columbus system (Perkin Elmer). The algorithm first identified the Vero nuclei followed by demarcation of the cytoplasm and identification of intracellular amastigotes. This algorithm reported percent infected Vero cell and total number of Vero cells. All potency determinations were carried out in at least three independent replicates and are reported as pEC50 +/- standard deviation. pEC50 = -log(EC50[M]).

[2] = target: T1, LAPTc (acidic M17 leucyl-aminopeptidase from T. cruzi) (Trypanosoma cruzi, UniProt V5BWE3); assay: High-throughput single point screening for LAPTc inhibitors by RapidFire-MS; type: biochemical; conditions: primary screen, 30 μM, single replicate; read-out: Percent Inhibition
T1 sequence (V5BWE3 entry or part of it): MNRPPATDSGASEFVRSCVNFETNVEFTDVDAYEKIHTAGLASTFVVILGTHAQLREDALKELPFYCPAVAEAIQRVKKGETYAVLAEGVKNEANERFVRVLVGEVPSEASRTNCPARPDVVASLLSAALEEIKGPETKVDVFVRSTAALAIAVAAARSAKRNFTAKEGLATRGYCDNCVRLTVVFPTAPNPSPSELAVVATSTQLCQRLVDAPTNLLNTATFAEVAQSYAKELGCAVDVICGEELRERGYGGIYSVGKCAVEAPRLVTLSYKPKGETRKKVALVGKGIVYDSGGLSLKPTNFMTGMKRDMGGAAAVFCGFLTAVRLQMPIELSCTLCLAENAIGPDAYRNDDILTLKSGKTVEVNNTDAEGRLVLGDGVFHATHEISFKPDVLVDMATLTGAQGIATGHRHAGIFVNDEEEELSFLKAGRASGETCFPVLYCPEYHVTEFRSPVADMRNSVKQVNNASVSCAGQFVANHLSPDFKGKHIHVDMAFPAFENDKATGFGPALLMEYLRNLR
Protocol: (§2) This assay was previously described. The assay was performed in 384-well clear F-bottom polypropylene plates with a final reaction volume of 15 μL. The reaction mixture contained 7.5 μL LAPTc in 50 mM Tris-HCl, pH 7.5, 0.005% NP-40 and 7.5 μL LSTVIVR peptide substrate (Cambridge Research Biochemicals, Billingham, UK) in the same buffer was added to start the reaction. The reaction was performed at room temperature for 40 min and then stopped with 85 μL 1% formic acid containing 0.15 mg/mL STVIVR* internal standard (Cambridge Research Biochemicals, Billingham, UK).
Single point screening of a library of 3329 compounds was performed in 384-well clear plates (Greiner 781101) at room temperature. Test compounds (45 nL in DMSO) were transferred to assay plates by an ECHO 550 acoustic dispenser (Labcyte). LAPTc was tested at 3 nM with 150 μM (approximately the value of the apparent Michaelis-Menten constant -appKM- [16]) LSTVIVR peptide substrate in a 40 min reaction. Before addition of substrate, LAPTc was preincubated with 45 nL compounds or DMSO for 15 min. Compounds, dissolved in DMSO, were tested at 30 μM. Controls without compound (the same volume of DMSO, 0% inhibitory effect) and without enzyme and compound (100% inhibitory effect) were prepared. The experiment was performed without replicates. The remaining experimental conditions were maintained as previously described. Data were processed and analysed through ActivityBase XE (IDBS). The selection criterion for hits in this single point screen was percent inhibition larger than the mean plus three standard deviations. All primary screening data are available in ChEMBL (see Data Availability statement).

Vero cells = assay: Cytotoxicity against infected Vero host cells in T. cruzi intracellular assay; type: cell-based, African green monkey; parameters: Max Effect (Vero): unit not given here; conditions: individual replicates
Protocol: (§3) Briefly, these cells were maintained at 37°C and 5% CO2 in MEM supplemented with 10% FCS, sub-culturing every 2–3 days at a ratio of 1:5 after 5 min treatment with Trypsin-EDTA (Gibco).
as §1, with “After 96 h incubation at 37°C in presence of 5% CO2, the plates were fixed with 4% formaldehyde for 20 min at room temperature and stained with 5 μg/mL Hoechst 33342.” left out

[3] = as above; type: cell-based, African green monkey; parameters: Max Effect (Vero): unit not given here; conditions: African green monkey, Vero cells infected with T. cruzi; infected Vero host cells, 96 h; read-out: pCC50 (Vero) +/- StDev (converted)
Protocol: as §3
as §1, with “After 96 h incubation at 37°C in presence of 5% CO2, the plates were fixed with 4% formaldehyde for 20 min at room temperature and stained with 5 μg/mL Hoechst 33342.” left out

[4] = target: T1, LAPTc (acidic M17 leucyl-aminopeptidase from T. cruzi); assay: Dose-response studies for LAPTc inhibition by RapidFire-MS; type: biochemical; conditions: for Emax: read-out: Maximum Effect; for Hit Confirmation: whether primary screen hit confirmed in potency experiment
Protocol: as §2
To generate half-maximum inhibitory concentration (IC50) data for LAPTc, 10-point dose-response curves with 100 μM as highest concentration and 1:2 dilution in DMSO (0.195–100 μM range) were prepared in 384 well plates. All other experimental conditions were as described above. All IC50 curve fitting was performed by four-parameter logistic dose-response curve fit using ActivityBase XE (IDBS). At least three replicates were generated for each hit compound.

[5] = Cytotoxicity assay on human HepG2 cells (resazurin); type: cell-based; conditions: human, HepG2 cells, 72 h, two independent experiments; read-out: pCC50 (HepG2) (converted)
HepG2 cells = assay: as above; type: cell-based; conditions: individual replicates
[6] = 96 h, four independent experiments, read-out: pEC50 (T. cruzi) +/- StDev (converted)
[7] = individual replicates, read-out: pEC50 (T. cruzi) (converted)
[8] = Initial hit confirmation, single replicate
[9] = Initial hit confirmation, single replicate, read-out: pIC50 (converted)
[10] = Replicate data generation, individual replicates
[11] = Replicate data generation, individual replicates, read-out: pIC50 (converted)
[12] = average of four independent replicates, read-out: pIC50 +/- StDev (LAPTc) (converted)

For `CC1c2ccsc2CCN1C(=O)c1ccc(-n2cnnn2)cc1` (stereo not shown) [Compound 2], the EC50 [1, 6] was greater than 50.1 µM, the EC50 [1, 7] was greater than 50.1 µM and the “Max Effect (T. cruzi)” value ([1]; individual replicates) was 42 and 15 and 37 and 27. For the same molecule, the inhibition at 30 µM [2] was 62%, the “Max Effect (Vero)” value (Vero cells) was 26 and 27 and 21 and 22 and the “pEC50 (Vero)” value (Vero cells) was less than 4.3. For the same molecule, the CC50 at 96 h [3] was greater than 50.1 µM, the “Hill Slope” value [4, 8] was 1.7 and the Emax [4, 8] was 77%. The IC50 [4, 9] was 31.6 µM, the “Hill Slope” value [4, 10] was 1.1 and 1.2 and the “Maximum Effect” value [4, 10] was 86%. For the same molecule, the Emax [4, 10] was 87%, the IC50 [4, 11] was 15.8 µM and the IC50 [4, 12] was 19.5 µM. The “Hit Confirmation” value [4] was “confirmed”, the CC50 at 72 h [5] was greater than 100 µM and the “Max Effect (HepG2)” value (HepG2 cells) was 4 and 3. The “pEC50 (HepG2)” value (HepG2 cells) was less than 4.0.
In the case of `Cc1ccc2nc(-c3ccc(NS(=O)(=O)c4cc(C(=O)O)c(Cl)cc4Cl)cc3)sc2c1` [Compound 5], the EC50 [1, 6] is reported as greater than 50.1 µM, the Emax ([1]; individual replicates) is reported as 44% and the EC50 [1, 7] is reported as greater than 50.1 µM. The “Max Effect (T. cruzi)” value ([1]; individual replicates) was 45, the inhibition at 30 µM [2] was 58% and the “Max Effect (Vero)” value (Vero cells) was 71 and 82 and 77. For the same molecule, the “pEC50 (Vero)” value (Vero cells) was 4.4 and 4.6 and 4.5, the CC50 at 96 h [3] was 33.1 µM and the “Hill Slope” value [4, 8] was 1.2. For the same molecule, the Emax [4, 8] was 96%, the IC50 [4, 9] was 12.6 µM and the “Hill Slope” value [4, 10] was 4.3 and 4.2 and 3.9. For the same molecule, the “Maximum Effect” value [4, 10] was 98%, the Emax [4, 10] was 99% and the IC50 [4, 11] was 7.94 µM. The IC50 [4, 12] was 8.91 µM, the “Hit Confirmation” value [4] was “confirmed” and the CC50 at 72 h [5] was greater than 100 µM. For the same molecule, the “Max Effect (HepG2)” value (HepG2 cells) was 4.7 and 1.78 and the “pEC50 (HepG2)” value (HepG2 cells) was less than 4.0.
In the case of `O=C(CN1NS(=O)(=O)c2ccccc2C1=O)NCCc1ccccc1` [Compound 6], the EC50 [1, 6] is reported as greater than 50.1 µM, the Emax ([1]; individual replicates) is reported as 11% and the EC50 [1, 7] is reported as greater than 50.1 µM. The “Max Effect (T. cruzi)” value ([1]; individual replicates) was 20 and 14 and 16, the inhibition at 30 µM [2] was 56% and the “Max Effect (Vero)” value (Vero cells) was 8.54 and 13 and 11 and 18. The “pEC50 (Vero)” value (Vero cells) was less than 4.3, the CC50 at 96 h [3] was greater than 50.1 µM and the “Hill Slope” value [4, 8] was 0.543. For the same molecule, the Emax [4, 8] was 68%, the IC50 [4, 9] was 20 µM and the “Hill Slope” value [4, 10] was 0.9 and 0.54 and 0.7. The “Maximum Effect” value [4, 10] was 72% and 73%, the Emax [4, 10] was 76% and the IC50 [4, 11] was 7.94 µM and 12.6 µM and 5.01 µM. The IC50 [4, 12] was 9.77 µM, the “Hit Confirmation” value [4] was “confirmed” and the CC50 at 72 h [5] was greater than 100 µM. For the same molecule, the “Max Effect (HepG2)” value (HepG2 cells) was 3.48 and 3.47 and the “pEC50 (HepG2)” value (HepG2 cells) was less than 4.0.
With `Nc1[nH]cnc1-c1nc(-c2ccccc2)cs1` [Compound 7] the EC50 [1, 6] was 38.9 µM, the EC50 [1, 7] was 31.6 µM and the “Max Effect (T. cruzi)” value ([1]; individual replicates) was 59 and 37 and 30. The “pEC50 (T. cruzi)” value ([1]; individual replicates) was < 4.3 and 4.3, the inhibition at 30 µM [2] was 56% and the “Max Effect (Vero)” value (Vero cells) was 78 and 73. The “pEC50 (Vero)” value (Vero cells) was 5.1 and 4.8 and 5.2, the CC50 at 96 h [3] was 10.2 µM and the “Hill Slope” value [4, 8] was 1.2. For the same molecule, the Emax [4, 8] was 90%, the IC50 [4, 9] was 2 µM and the “Hill Slope” value [4, 10] was 1.7 and 1.5. The “Maximum Effect” value [4, 10] was 50% and 61%, the Emax [4, 10] was 53% and the IC50 [4, 12] was 3.89 µM. The “Hit Confirmation” value [4] was “confirmed”, the CC50 at 72 h [5] was greater than 100 µM and the “Max Effect (HepG2)” value (HepG2 cells) was 3 and 4. The “pEC50 (HepG2)” value (HepG2 cells) was less than 4.0.
In the case of `Cn1ccnc1C(NS(=O)(=O)c1ccc(C#N)cc1)c1cccc(F)c1` (stereo not shown) [Compound 8], the EC50 [1, 6] is reported as greater than 50.1 µM, the Emax ([1]; individual replicates) is reported as 29% and the EC50 [1, 7] is reported as greater than 50.1 µM. For the same molecule, the “Max Effect (T. cruzi)” value ([1]; individual replicates) was 31 and 26 and 25, the inhibition at 30 µM [2] was 49% and the “Max Effect (Vero)” value (Vero cells) was 18 and 29 and 34 and 32. For the same molecule, the “pEC50 (Vero)” value (Vero cells) was less than 4.3, the CC50 at 96 h [3] was greater than 50.1 µM and the “Hill Slope” value [4, 8] was 1.0. The Emax [4, 8] was 89%, the IC50 [4, 9] was 12.6 µM and the “Hill Slope” value [4, 10] was 1.5 and 1.6 and 1.3. The “Maximum Effect” value [4, 10] was 82%, the Emax [4, 10] was 79% and the IC50 [4, 11] was 12.6 µM. For the same molecule, the “Hit Confirmation” value [4] was “confirmed”, the CC50 at 72 h [5] was greater than 100 µM and the “Max Effect (HepG2)” value (HepG2 cells) was 6.44 and 10. For the same molecule, the “pEC50 (HepG2)” value (HepG2 cells) was less than 4.0.
